# Measurements from PMC11091889, “Silver Organometallics that are Highly Potent Thioredoxin and Glutathione Reductase Inhibitors: Exploring the Correlations of Solution Chemistry with the Strong Antibacterial Effects” (ACS Infectious Diseases, 2024).
# System: Caco-2 cells
# Conditions: read-out: Cytotoxicity IC50 Caco-2; 24 h, almost confluent cell layers, highest concentration 100 μM
# Experimental: Besides the antimicrobial effects, the toxic effects of silver ions have to be considered.[10],[12] As a primary evaluation of the cell toxicity triggered by silver NHC complexes, almost confluent cell layers of CaCo-2 cells were grown and challenged for 24 h with the silver complexes and also with the silver reference compounds AgNO3 and SSD (see Figure 6).
# Caco-2 cells were grown as almost confluent monolayers in 96-well plates. The complexes were dissolved in wells of 96-well plates as stock solutions in DMSO (0.2% v/v) diluted with DMEM cell culture medium, which was supplemented with 10% fetal calf serum and 50 mg/L gentamicin. The cell layers were incubated with the drug containing media for 24 h at 37 °C/5% CO2 in an incubator. The cell viability was determined using crystal violet (0.02%) staining and was calculated as percentage of an untreated control. Results were obtained in three independent experiments.
row,SMILES,IC50 [µM]
1,"COCCn1[c](=[Ag][I])n(Cc2ccccn2)c2ccccc21 [4c, Iodido (1-(2-Methoxyethyl)-3-(pyridin-2-ylmethyl)-benzimidazol-2-ylidene) Silver(I)]",> 100
2,"CC(C)n1[c](=[Ag][I])n(Cc2ccccn2)c2ccccc21 [3c, Iodido (1-Isopropyl-3-(pyridin-2-ylmethyl)-benzimidazol-2-ylidene) Silver(I)]",> 100
